Measurements: PubChem BioAssay (NCI)
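GI50: concentration for 50% inhibition of growth. TGI denotes the concentration required for complete inhibition of growth.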

Tests used:
Test in all cases: growth of human tumour cells (NCI), 384-well format
786-0 renal = test system: 786-0 renal
A498 renal = test system: A498 renal
A549 NSCLC = test system: A549 NSCLC
ACHN renal = test system: ACHN renal
BT-549 breast = test system: BT-549 breast
CAKI-1 renal = test system: CAKI-1 renal
CCRF-CEM leukemia = test system: CCRF-CEM leukemia
EKVX NSCLC = test system: EKVX NSCLC
HCC-2998 colon = test system: HCC-2998 colon
HCT-116 colon = test system: HCT-116 colon
HCT-15 colon = test system: HCT-15 colon
HL-60(TB) leukemia = test system: HL-60(TB) leukemia
HOP-62 NSCLC = test system: HOP-62 NSCLC
HOP-92 NSCLC = test system: HOP-92 NSCLC
HS 578T breast = test system: HS 578T breast
HT29 colon = test system: HT29 colon
IGROV1 ovarian = test system: IGROV1 ovarian
K-562 leukemia = test system: K-562 leukemia
LOX IMVI melanoma = test system: LOX IMVI melanoma
MALME-3M melanoma = test system: MALME-3M melanoma
MCF7 breast = test system: MCF7 breast
MDA-MB-435 melanoma = test system: MDA-MB-435 melanoma
MDA-MB-468 breast = test system: MDA-MB-468 breast
MOLT-4 leukemia = test system: MOLT-4 leukemia
NCI-H226 lung = test system: NCI-H226 lung
NCI-H23 lung = test system: NCI-H23 lung
NCI-H460 NSCLC = test system: NCI-H460 NSCLC
NCI-H522 lung = test system: NCI-H522 lung
NCI/ADR-RES ovarian = test system: NCI/ADR-RES ovarian
OVCAR-3 ovarian = test system: OVCAR-3 ovarian
OVCAR-4 ovarian = test system: OVCAR-4 ovarian
OVCAR-5 ovarian = test system: OVCAR-5 ovarian
OVCAR-8 ovarian = test system: OVCAR-8 ovarian
PC-3 prostate = test system: PC-3 prostate
RPMI-8226 leukemia = test system: RPMI-8226 leukemia
RXF 393 renal = test system: RXF 393 renal
SF-268 CNS = test system: SF-268 CNS
SF-295 CNS = test system: SF-295 CNS
SF-539 CNS = test system: SF-539 CNS
SK-MEL-5 melanoma = test system: SK-MEL-5 melanoma
SK-OV-3 ovarian = test system: SK-OV-3 ovarian
SN12C renal = test system: SN12C renal
SNB-19 CNS = test system: SNB-19 CNS
SNB-75 CNS = test system: SNB-75 CNS
SW-620 colon = test system: SW-620 colon
T-47D breast = test system: T-47D breast
TK-10 renal = test system: TK-10 renal
U251 glioblastoma = test system: U251 glioblastoma
UO-31 renal = test system: UO-31 renal

Work on `COc1cc(C(=O)NC2CCN(C)CC2)c(F)cc1Nc1ncc2c(n1)N(C1CCCC1)CC(F)(F)C(=O)N2C` yielded a GI50 ([…]-0 renal) of 30.8 nM, a TGI (786-0 renal) of 1430 nM and a GI50 (A498 renal) of 99.5 nM. It also gave a TGI (A498 renal) of 10700 nM, a GI50 (A549 NSCLC) of less than 10 nM and a TGI (A549 NSCLC) of 410 nM. The GI50 (ACHN renal) was 83.1 nM, the TGI (ACHN renal) was 11300 nM and the GI50 (BT-549 breast) was 30.9 nM. For the same compound, the TGI (BT-549 breast) was 242 nM, the GI50 (CAKI-1 renal) was 93.2 nM and the TGI (CAKI-1 renal) was 10500 nM. It also gave a GI50 (CCRF-CEM leukemia) of less than 10 nM, a TGI (CCRF-CEM leukemia) of less than 10 nM and a GI50 (EKVX NSCLC) of 91.7 nM. For the same compound, the TGI (EKVX NSCLC) was 6980 nM, the GI50 (HCC-2998 colon) was 13.5 nM and the TGI (HCC-2998 colon) was 51.5 nM. It also gave a GI50 (HCT-116 colon) of less than 10 nM, a TGI (HCT-116 colon) of 1340 nM and a GI50 (HCT-15 colon) of 21.4 nM. The TGI (HCT-15 colon) was 160 nM, the GI50 (HL-60(TB) leukemia) was less than 10 nM and the TGI (HL-60(TB) leukemia) was less than 10 nM. It also gave a GI50 (HOP-62 NSCLC) of less than 10 nM, a TGI (HOP-62 NSCLC) of 2900 nM and a GI50 (HOP-92 NSCLC) of 41.3 nM. It also gave a TGI (HOP-92 NSCLC) of 1400 nM, a GI50 (HS 578T breast) of 13.5 nM and a TGI (HS 578T breast) of 42.1 nM. The GI50 (HT29 colon) was less than 10 nM, the TGI (HT29 colon) was 19.3 nM and the GI50 (IGROV1 ovarian) was 29.8 nM. For the same compound, the TGI (IGROV1 ovarian) was 2820 nM, the GI50 (K-562 leukemia) was less than 10 nM and the TGI (K-562 leukemia) was 53.7 nM. For the same compound, the GI50 (LOX IMVI melanoma) was 16.7 nM, the TGI (LOX IMVI melanoma) was 1150 nM and the GI50 (MALME-3M melanoma) was 26.5 nM. For the same compound, the TGI (MALME-3M melanoma) was 1530 nM, the GI50 (MCF7 breast) was less than 10 nM and the TGI (MCF7 breast) was 1510 nM. For the same compound, the GI50 (MDA-MB-435 melanoma) was less than 10 nM, the TGI (MDA-MB-435 melanoma) was 10.8 nM and the GI50 (MDA-MB-468 breast) was less than 10 nM. It also gave a TGI (MDA-MB-468 breast) of less than 10 nM, a GI50 (MOLT-4 leukemia) of less than 10 nM and a TGI (MOLT-4 leukemia) of less than 10 nM. For the same compound, the GI50 (NCI-H226 lung) was 1330 nM, the TGI (NCI-H226 lung) was 6330 nM and the GI50 (NCI-H23 lung) was less than 10 nM. The TGI (NCI-H23 lung) was 16.7 nM, the GI50 (NCI-H460 NSCLC) was less than 10 nM and the TGI (NCI-H460 NSCLC) was 14.7 nM. For the same compound, the GI50 (NCI-H522 lung) was less than 10 nM, the TGI (NCI-H522 lung) was less than 10 nM and the GI50 (NCI/ADR-RES ovarian) was 50.9 nM. The TGI (NCI/ADR-RES ovarian) was 206 nM, the GI50 (OVCAR-3 ovarian) was less than 10 nM and the TGI (OVCAR-3 ovarian) was 14.1 nM. The GI50 (OVCAR-4 ovarian) was 1630 nM, the TGI (OVCAR-4 ovarian) was 5880 nM and the GI50 (OVCAR-5 ovarian) was 14 nM. It also gave a TGI (OVCAR-5 ovarian) of 1730 nM, a GI50 (OVCAR-8 ovarian) of 10.4 nM and a TGI (OVCAR-8 ovarian) of 26.8 nM. For the same compound, the GI50 (PC-3 prostate) was 33.4 nM, the TGI (PC-3 prostate) was 13100 nM and the GI50 (RPMI-8226 leukemia) was 16.3 nM. The TGI (RPMI-8226 leukemia) was 31.5 nM, the GI50 (RXF 393 renal) was less than 10 nM and the TGI (RXF 393 renal) was 27.4 nM. The GI50 (SF-268 CNS) was less than 10 nM, the TGI (SF-268 CNS) was less than 10 nM and the GI50 (SF-295 CNS) was 30.8 nM. The TGI (SF-295 CNS) was 272 nM, the GI50 (SF-539 CNS) was 20.5 nM and the TGI (SF-539 CNS) was 1060 nM. It also gave a GI50 (SK-MEL-5 melanoma) of less than 10 nM, a TGI (SK-MEL-5 melanoma) of 42.8 nM and a GI50 (SK-OV-3 ovarian) of 16.7 nM. The TGI (SK-OV-3 ovarian) was 1160 nM, the GI50 (SN12C renal) was 246 nM and the TGI (SN12C renal) was 3440 nM. It also gave a GI50 (SNB-19 CNS) of 17.5 nM, a TGI (SNB-19 CNS) of 5750 nM and a GI50 (SNB-75 CNS) of 47.2 nM. The TGI (SNB-75 CNS) was 3280 nM, the GI50 (SW-620 colon) was less than 10 nM and the TGI (SW-620 colon) was 28.4 nM. It also gave a GI50 (T-47D breast) of 26.1 nM, a TGI (T-47D breast) of 1270 nM and a GI50 (TK-10 renal) of 1380 nM. It also gave a TGI (TK-10 renal) of 5990 nM, a GI50 (U251 glioblastoma) of less than 10 nM and a TGI (U251 glioblastoma) of 2360 nM. For the same compound, the GI50 (UO-31 renal) was 52.1 nM and the TGI (UO-31 renal) was 2030 nM.
